Data set [1] in a line: Clearance in Sprague-Dawley rat at 2 mg/kg, iv administered as single dose. The class given is ADME, organism-based. The following applies: in vivo.
Data set [2] in a line: Intrinsic clearance in human liver microsomes. The format is ADME. The following applies: read-out: CLH.
Data set [3] is described as follows: Cmax in Sprague-Dawley rat plasma at 2 mg/kg, iv administered as single dose measured after 8 hrs. The format is ADME, organism-based. Set-up: dose 2 mg/kg, route intravenous.
The nature of data set [4]: Half life in Sprague-Dawley rat at 10 mg/kg, po administered as single dose. The class given is ADME, organism-based. As to conditions: in vivo.
Data set [5] can be described thus: AUC (infinity) in Sprague-Dawley rat at 2 mg/kg, iv administered as single dose. The format is ADME, organism-based. Set-up: dose 2 mg/kg, route intravenous, time infinity. The following applies: in vivo.
The nature of data set [6]: AUCt in Sprague-Dawley rat at 10 mg/kg, po administered as single dose. As to conditions: in vivo. The format is ADME, organism-based.
A short description of data set [7]: Tmax in Sprague-Dawley rat at 10 mg/kg, po administered as single dose. The class given is ADME, organism-based. As to conditions: in vivo.
Data set [8] can be described thus: AUCt in Sprague-Dawley rat at 2 mg/kg, iv administered as single dose. The format is ADME, organism-based. As to conditions: in vivo.
Data set [9] can be described thus: Cytotoxicity against human HuH7 cells by colorimetric proliferation assay. The format is cell-based, Huh-7.
Data set [10] is described as follows: Half life in rat liver microsomes. The format is ADME.
Data set [11] is described as follows: Inhibition of recombinant full length HCV genotype 1b NS3/4A protease by FRET assay. Further details: species or system Hepatitis C virus subtype 1b.
Data set [12] is described as follows: Oral bioavailability in Sprague-Dawley rat at 10 mg/kg administered as single dose. As to conditions: in vivo. The class given is ADME, organism-based.
The test system of data set [13] is Hepatitis C virus. Description: Antiviral activity against HCV genotype 1b infected in human HuH7 cells after 3 days by luciferase assay. The format is functional, organism-based, Hepacivirus hominis. As to conditions: Huh-7, 72 h.
Data set [14] in a line: Cmax in Sprague-Dawley rat plasma at 10 mg/kg, po administered as single dose measured after 24 hrs. The format is ADME, organism-based. Further details: dose 10 mg/kg, route oral.
Data set [15] can be described thus: Intrinsic clearance in rat liver microsomes. The format is ADME. As to conditions: read-out: CLH. Background: Microsomes from liver hold many membrane-bound enzymes, among them those of drug oxidation.
The nature of data set [16]: Half life in Sprague-Dawley rat at 2 mg/kg, iv administered as single dose. The class given is ADME, organism-based. As to conditions: in vivo.
Data set [17] can be described thus: Intrinsic clearance in monkey liver microsomes. The class given is ADME, Macaca mulatta. As to conditions: rhesus monkey, read-out: CLH.
A short description of data set [18]: Intrinsic clearance in rat cryopreserved hepatocytes assessed per 10^6 cells. As to conditions: read-out: CLH. The format is ADME, cell-based, Hepatocyte.
Data set [19] is described as follows: Tmax in Sprague-Dawley rat at 2 mg/kg, iv administered as single dose. The class given is ADME, organism-based. The following applies: in vivo.
Data set [20] in a line: AUC (infinity) in Sprague-Dawley rat at 10 mg/kg, po administered as single dose. The following applies: in vivo. Further details: dose 10 mg/kg, time infinity, route oral. The class given is ADME, organism-based.

The structures appear in SMILES notation.

Usually clearance stands for a measure of how efficiently the substance is removed, as volume per time. As usually defined, the Cmax is the maximum level reached in the sampled fluid or tissue. The term half-life denotes the time needed for the level to fall by half in the phase considered. What is called AUC(0-inf) is the area under the concentration-time curve extrapolated to infinity. Broadly, the AUC(0-t) is the area under the concentration-time curve up to a stated or last time point. The Tmax is the time at which the peak concentration occurs. As usually defined, the CC50 is the concentration at which the toxic effect on the cells reaches its halfway point. For orientation: IC50 means the concentration needed to halve the response being measured. One may read the bioavailability as dose-corrected exposure relative to a reference, in per cent. As a reminder, the EC50 is the concentration that produces a half-maximal response. As to `COc1ccc2c(O[C@H]3C[C@H]4C(=O)N(C)CCCC/C=C/[C@@H]5C[C@@]5(C(=O)NS(=O)(=O)C5(C)CC5)NC(=O)N4C3)cc(-c3nc(C(F)(F)F)cs3)nc2c1C`, the clearance in data set [1] was 13.2 mL/min/kg. The microsomal CLint is 24 µL/min/mg in data set [2], 11.4 µL/min/mg in data set [15] and 46.7 µL/min/mg in [17]. Further, the highest concentration (Cmax) in [3] is 2670 ng/mL; in data set [14] it was 406 ng/mL. For the same compound, the figures for the half-life in data set [4], in data set [10] and in [16] were 5.2 h, 2.03 h and 1.5 h, respectively. For the same compound, the area under the curve AUC(0-inf) in data set [5] amounted to 2570 ng·h/mL; in data set [20] it was 2380 ng·h/mL. The AUC(0-t) in [6] stood at 2230 ng·h/mL; in data set [8], 2540 ng·h/mL. The figures for the Tmax in data set [7] and in data set [19] were 1 h and 4.8 min, respectively. The compound also registered a CC50 in data set [9] of 75000 nM. Moreover, in data set [11], the IC50 is 0.5 nM. In data set [12], this compound returned a bioavailability of 18%. The same compound yielded a 50% effective concentration (EC50) in [13] of 13 nM. Also, the hepatocyte CLint in data set [18] was 17.4 µL/min/1e6 cells.

The values are drawn from ChEMBL document CHEMBL3632591, “Discovery and structural diversity of the hepatitis C virus NS3/4A serine protease inhibitor series leading to clinical candidate IDX320” (Bioorg Med Chem Lett, 2015).
